From patent US4656274A, “Polyfluorinated substituted tricyclic quinoline mono and dioxo antifungal agents and process for their preparation” (Ortho Pharmaceutical Corporation, priority 1985, dated 1987)
Converted amounts (≈) assume the structure as drawn.

Key:
Experiment in all cases: Microbiological minimum inhibitory concentration test (agar dilution)
Assay type in all cases: cell-based
[1] = system: Candida albicans ATCC 10231; settings: ATCC10231, Mycophil Agar with low pH, 32° C., growth read at 24 and 48 hours and 7 days, read-out: MIC (minimal inhibitory concentration)
Description: (§1) The antifungal activity of the polyfluorinated substituted quinoline mono- and dioxo compounds was determined according to the following procedure:
(§2) MICROBIOLOGICAL MINIMUM INHIBITORY CONCENTRATION TEST
Candida albicans ATCC 10231
(§3) Mycophil Agar with low pH
(§4) A 0.5 mg/ml stock solution of each compound was volumetrically prepared in an appropriate solvent From this stock, 1:2 serial dilutions were prepared in sterile distilled water. Two ml aliquots of the stock and serial dilutions were added to tubes containing 18 ml of mycophil agar (46°-50° C.). Mixtures were poured into square 100×15 mm petri dishes and allowed to solidify.
(§5) All test organisms, except Candida albicans were harvested from six day mycophil agar slants. Candida albicans was diluted from a frozen stock culture. Inocula were diluted with sterile saline to contain approximately 1×10^8 CFUs per ml. Plate counts were performed on 1 ml of all inocula.
(§6) Each plate and appropriate solvent and unadulterated agar growth control was inoculated in duplicate with the inocula prepared above using a Steer's Replicator method.
(§7) Plates were then incubated at 32° C. Observations for growth were made at 24 and 48 hours and 7 days.
(§8) These MIC data are found in Table I.

[2] = system: Trichophyton mentagrophytes ATCC 22839; settings: ATCC22839, Mycophil Agar with low pH, 32° C., growth read at 24 and 48 hours and 7 days, read-out: MIC (minimal inhibitory concentration)
Description: as §1, §2
Trichophyton mentagrophytes ATCC 22839
as §3, §4, §5, §6, §7, §8

[3] = system: Trichophyton rubrum ATCC 10218; settings: ATCC10218, Mycophil Agar with low pH, 32° C., growth read at 24 and 48 hours and 7 days, read-out: MIC (minimal inhibitory concentration)
Description: as §1, §2
Trichophyton rubrum ATCC 10218
as §3, §4, §5, §6, §7, §8

[4] = system: Epidermophyton floccosum ATCC 15693; settings: ATCC15693, Mycophil Agar with low pH, 32° C., growth read at 24 and 48 hours and 7 days, read-out: MIC (minimal inhibitory concentration)
Description: as §1, §2
Epidermophyton floccosum ATCC 15693
as §3, §4, §5, §6, §7, §8

[5] = system: Microsporum gypseum ATCC 14683; settings: Nannizzia gypsea, ATCC14683, Mycophil Agar with low pH, 32° C., growth read at 24 and 48 hours and 7 days, read-out: MIC (minimal inhibitory concentration)
Description: as §1, §2
Microsporum gypseum ATCC 14683
as §3, §4, §5, §6, §7, §8

[6] = system: Microsporum canis JJP #143; settings: Mycophil Agar with low pH, 32° C., growth read at 24 and 48 hours and 7 days, read-out: MIC (minimal inhibitory concentration)
Description: as §1, §2
Microsporum canis JJP #143
as §3, §4, §5, §6, §7, §8

| MIC [1] [µg/mL] | MIC [2] [µg/mL] | MIC [3] [µg/mL] | MIC [4] [µg/mL] | MIC [5] [µg/mL] | MIC [6] [µg/mL] | Structure (SMILES) |
| --- | --- | --- | --- | --- | --- | --- |
| 50 (≈ 160 µM) | 25 (≈ 79.8 µM) | 1.6 (≈ 5.11 µM) | 0.39 (≈ 1.25 µM) | 4.6 (≈ 14.7 µM) | 25 (≈ 79.8 µM) | Cn1c(=O)c2cc3c(F)c(F)c(F)c(F)c3nc2n(C)c1=O [I, 5,6,7,8-Tetrafluoro-1,3-dimethylpyrimidinol[6,5-b]quinolin-2,4-dione] |
| 50 (≈ 168 µM) | 6.2 (≈ 20.9 µM) | 6.2 (≈ 20.9 µM) | 1.5 (≈ 5.05 µM) | 9.4 (≈ 31.6 µM) | 25 (≈ 84.1 µM) | CC1(C)CC(=O)c2cc3c(F)c(F)c(F)c(F)c3nc2C1 [II, 5,6,7,8-Tetrafluoro-2,2-dimethylbenzo[2,1-b]quinolin-4-one] |
